One experiment has as its target human P2Y12 receptor (Homo sapiens, UniProt Q9H244). Kind of experiment: Human P2Y12 recombinant cell membrane binding assay with 33P 2MeS-ADP. Particulars: competition against 33P 2MeS-ADP, membranes of CHO cells with recombinant human P2Y12 receptor. In a few lines:
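Competition binding against radiolabeled 2MeS-ADP (1.61 nM as added) on membranes from recombinant human P2Y12 CHO cells, 20 min RT after 15 min compound preincubation, pH 7.4. Filtration then scintillation counting; compounds tested in triplicate from 10 μM final, five-fold dilutions, curve fit with plate-defined min/max.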

Experiment [1] concerns human platelet rich plasma. As to the kind of experiment: Inhibition of human platelet aggregation, 96-well assay. Type of experiment: cell-based. As to conditions: Homo sapiens, Platelet, 20 min. In a few lines:
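ADP-induced aggregation read as 650 nm absorbance every minute for 20 min at 37 °C, with shaking between reads. PRP (~3×E8 platelets/ml, diluted with PPP, ACD-A blood from healthy volunteers) was exposed to compound for 5 min before adding a 40 μM ADP stock (15 μl into 150 μl).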

In experiment [2] the test system is human platelet rich plasma. As to the kind of experiment: Inhibition of human platelet aggregation, "Born"-method using single cuvettes. Type of experiment: cell-based. As to conditions: 0.1 h, ADP-induced aggregation, 6 minutes. The method, then:
Inhibition of Human Platelet Aggregation
Alternatively to a binding assay which measures a compound's ability to bind to the P2Y12 receptor, the effect on cellular function was also determined. This ability of the compound was evaluated in two platelet aggregation assays: in 96-well plates and with the “Born”-method using single cuvettes.
Whole blood was collected from healthy volunteers using 20 ml syringes containing 2 ml of buffered Citrate. The anticoagulated whole blood was transferred into 15 ml polypropylene conical tubes (10 ml per tube). The tubes were centrifuged for 15 minutes at 340×g at RT without using the centrifuge brake. This procedure leads to a pellet of cellular components and a supernatant of platelet rich plasma (PRP). The PRP layer was collected from each tube and pooled for each donor. To avoid carry over of cellular components following centrifugation, approximately 5 ml of PRP was left in the tube. The platelet concentration was determined using a Coulter Counter.
The 15 ml tubes containing the pellet of cellular components were centrifuged again for 10 minutes at 1940×g. This pelleted out most particulate blood constituents remaining, leaving a layer of Platelet Poor Plasma (PPP). The PPP was collected for each donor. The PRP layer, previously set aside, was diluted with PPP to a final concentration of approximately 3×E8 platelets/ml with the PPP.
The human platelet aggregation assay is performed in single use cuvettes using the platelet aggregation profiler (PAP-4 or -8, Bio/Data corporation).
In the assay cuvette 4 μl of test compound at 100× final concentration in DMSO is mixed with 392 μl fresh PRP and incubated for 2 minutes at 37° C. with 1.200 rpm stirring. Following that incubation period, 4 μl of 250 μM ADP is added to the reaction mix. This addition of ADP is sufficient to induce aggregation in the absence of an inhibitor. After that aggregation is measured over 6 minutes at 37° C. with 1.200 rpm stirring. Results of the assay are expressed as % inhibition, and are calculated using maximum aggregation (Tmax) or area under curve (AUC) of the absorbance over 6 minutes.
The IC50 data of the above described platelet aggregation assay using human platelet rich plasma for exemplary compounds of the present invention are shown in table 3.

human P2Y12 receptor, sequence (Q9H244 whole entry): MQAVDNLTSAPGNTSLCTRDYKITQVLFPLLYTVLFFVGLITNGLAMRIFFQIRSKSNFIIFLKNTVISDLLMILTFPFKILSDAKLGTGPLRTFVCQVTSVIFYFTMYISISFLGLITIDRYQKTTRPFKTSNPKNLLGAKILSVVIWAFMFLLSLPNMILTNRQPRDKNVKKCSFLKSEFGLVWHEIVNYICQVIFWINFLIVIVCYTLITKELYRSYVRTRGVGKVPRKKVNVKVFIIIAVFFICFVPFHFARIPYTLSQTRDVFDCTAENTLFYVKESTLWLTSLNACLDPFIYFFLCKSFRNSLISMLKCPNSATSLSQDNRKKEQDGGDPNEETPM

For orientation: IC50 means the concentration that inhibits the measured activity by half. With `CCCCOC(=O)N1CCN(C(=O)[C@H](CC)NC(=O)c2cc(OCC(=O)N3CCC[C@H]3C(=O)NC3CCC3)n(-c3ccccc3)n2)CC1` [Example 233, 4-[(S)-2-({5-[2-((S)-2-Cyclobutylcarbamoyl-pyrrolidin-1-yl)-2-oxo-ethoxy]-1-phenyl-1H-pyrazole-3-carbonyl}-amino)-butyryl]-piperazine-1-carboxylic acid butyl ester], the IC50 on human P2Y12 receptor was determined as 21 nM; in experiment [1], 200 nM; in experiment [2], 60 nM.
The corresponding values for `CCOC(=O)N1CCN(C(=O)[C@H](CCC(=O)O)NC(=O)c2cc(OCC(=O)N3CCC[C@H]3C(=O)NCC3CCC3)n(-c3ccccc3)n2)CC1` [Example 20, 4-{(S)-4-Carboxy-2-[(5-{2-[(S)-2-(cyclobutylmethyl-carbamoyl)-pyrrolidin-1-yl]-2-oxo-ethoxy}-1-phenyl-1H-pyrazole-3-carbonyl)-amino]-butyryl}-piperazine-1-carboxylic acid ethyl ester] are 50 nM, 100 nM and 72 nM.
The corresponding values for `CCCCOC(=O)N1CCN(C(=O)[C@H](CCC(=O)OCC)NC(=O)c2cc(OCC(=O)N3CCC[C@H]3C(=O)NC3CCC3)n(-c3ccccc3)n2)CC1` [Example 143, 4-[(S)-2-({5-[2-((S)-2-Cyclobutylcarbamoyl-pyrrolidin-1-yl)-2-oxo-ethoxy]-1-phenyl-1H-pyrazole-3-carbonyl}-amino)-4-ethoxycarbonyl-butyryl]-piperazine-1-carboxylic acid butyl ester] are 5 nM, 90 nM and 150 nM.
The corresponding values for `CCCCOC(=O)N1CCN(C(=O)[C@H](CCC(=O)O)NC(=O)c2cc(OCC(=O)N3CCC[C@H]3C(=O)NCCF)n(-c3ccccc3)n2)CC1` [Example 122, 4-{(S)-4-Carboxy-2-[(5-{2-[(S)-2-(2-fluoro-ethylcarbamoyl)-pyrrolidin-1-yl]-2-oxo-ethoxy}-1-phenyl-1H-pyrazole-3-carbonyl)-amino]-butyryl}-piperazine-1-carboxylic acid butyl ester] are 12 nM, 40 nM and 81 nM.
Regarding `CCCCOC(=O)N1CCN(C(=O)[C@H](CCC(=O)O)NC(=O)c2cc(OCC(=O)N3CCC[C@H]3C(=O)NCC3CC3)n(-c3ccccc3)n2)CC1` [Example 120, 4-[(S)-4-Carboxy-2-({5-[2-((S)-2-cyclopropylmethylcarbamoyl-pyrrolidin-1-yl)-2-oxo-ethoxy]-1-phenyl-1H-pyrazole-3-carbonyl}-amino)-butyryl]-piperazine-1-carboxylic acid butyl ester], the IC50 is 3 nM at human P2Y12 receptor, 10 nM in experiment [1] and 21 nM in experiment [2].
The corresponding values for `CCCCOC(=O)N1CCN(C(=O)[C@@H](NC(=O)c2cc(OCC(=O)N3CCC[C@H]3C(=O)NC3CCC3)n(-c3ccccc3)n2)C2CC2)CC1` [Example 230, 4-[(S)-2-({5-[2-((S)-2-Cyclobutylcarbamoyl-pyrrolidin-1-yl)-2-oxo-ethoxy]-1-phenyl-1H-pyrazole-3-carbonyl}-amino)-2-cyclopropyl-acetyl]-piperazine-1-carboxylic acid butyl ester] are 14 nM, 210 nM and 80 nM.
For the molecule `O=C(O)CC[C@H](NC(=O)c1cc(OCC(=O)N2CCC[C@H]2C(=O)NC2CCC2)n(-c2ccccc2)n1)C(=O)N1CCC(C(=O)c2cccc(Cl)c2)CC1` [Example 103, (S)-5-[4-(3-Chloro-benzoyl)-piperidin-1-yl]-4-({5-[2-((S)-2-cyclobutylcarbamoyl-pyrrolidin-1-yl)-2-oxo-ethoxy]-1-phenyl-1H-pyrazole-3-carbonyl}-amino)-5-oxo-pentanoic acid], the results for the concentration for half-maximal inhibition (IC50) (on human P2Y12 receptor; in experiment [1]; in experiment [2]) were 127 nM, 560 nM and 120 nM, respectively.
The corresponding values for `CCOC(=O)N1CCN(C(=O)[C@H](CCC(=O)O)NC(=O)c2cc(OCC(=O)N3CCC[C@H]3c3nc(C)c[nH]3)n(-c3ccccc3)n2)CC1` [Example 172, 4-{(S)-4-Carboxy-2-[(5-{2-[(S)-2-(4-methyl-1H-imidazol-2-yl)-pyrrolidin-1-yl]-2-oxo-ethoxy}-1-phenyl-1H-pyrazole-3-carbonyl)-amino]-butyryl}-piperazine-1-carboxylic acid ethyl ester] are 146 nM, 380 nM and 530 nM.
The corresponding values for `CCOC(=O)N1CCN(C(=O)[C@H](CCC(=O)O)NC(=O)c2cc(OC(C)C(=O)N3CCC[C@H]3C(=O)NCC(F)(F)F)n(-c3ccccc3)n2)CC1` (stereo partly drawn) [Example 53, 4-{(S)-4-Carboxy-2-[(5-{1-methyl-2-oxo-2-[(S)-2-(2,2,2-trifluoro-ethylcarbamoyl)-pyrrolidin-1-yl]-ethoxy}-1-phenyl-1H-pyrazole-3-carbonyl)-amino]-butyryl}-piperazine-1-carboxylic acid ethyl ester] are 129 nM, 30 nM and 39 nM.
Consider `CCOC(=O)N1CCN(C(=O)[C@H](CCC(=O)O)NC(=O)c2cc(O[C@H](C)C(=O)N3CCC[C@H]3C(=O)NC3CC3)n(-c3ccccc3)n2)CC1` [Example 61, 4-[(S)-4-Carboxy-2-({5-[(R)-2-((S)-2-cyclopropylcarbamoyl-pyrrolidin-1-yl)-1-methyl-2-oxo-ethoxy]-1-phenyl-1H-pyrazole-3-carbonyl}-amino)-butyryl]-piperazine-1-carboxylic acid ethyl ester], for which the results for the IC50 (at human P2Y12 receptor; in experiment [1]; in experiment [2]) were 93 nM, 50 nM and 180 nM, respectively.
The corresponding values for `CCCCOC(=O)N1CCN(C(=O)[C@H](CCC(=O)O)NC(=O)c2cc(OCC(=O)N3CCC[C@H]3C(=O)NCC(F)F)n(-c3ccccc3)n2)CC1` [Example 121, 4-{(S)-4-Carboxy-2-[(5-{2-[(S)-2-(2,2-difluoro-ethylcarbamoyl)-pyrrolidin-1-yl]-2-oxo-ethoxy}-1-phenyl-1H-pyrazole-3-carbonyl)-amino]-butyryl}-piperazine-1-carboxylic acid butyl ester] are 10 nM, 30 nM and 5.8 nM.
The corresponding values for `CCOC(=O)N1CCN(C(=O)[C@H](CCC(=O)O)NC(=O)c2cc(OCC(=O)N3CCC[C@H]3C(=O)NCC(F)F)n(-c3ccccc3)n2)CC1` [Example 15, 4-{(S)-4-Carboxy-2-[(5-{2-[(S)-2-(2,2-difluoro-ethylcarbamoyl)-pyrrolidin-1-yl]-2-oxo-ethoxy}-1-phenyl-1H-pyrazole-3-carbonyl)-amino]-butyryl}-piperazine-1-carboxylic acid ethyl ester] are 164 nM, 130 nM and 120 nM.
`CCOC(=O)N1CCN(C(=O)[C@H](CCC(=O)O)NC(=O)c2cc(OCC(=O)N3CCC[C@H]3C(=O)NC3CCC3)n(-c3cccc(F)c3)n2)CC1` [Example 73, 4-((S)-4-Carboxy-2-{[5-[2-((S)-2-cyclobutylcarbamoyl-pyrrolidin-1-yl)-2-oxo-ethoxy]-1-(3-fluoro-phenyl)-1H-pyrazole-3-carbonyl]-amino}-butyryl)-piperazine-1-carboxylic acid ethyl ester]: the IC50 at human P2Y12 receptor came to 55 nM; in experiment [1] it was 10 nM; in experiment [2], 210 nM.
`CCOC(=O)N1CCN(C(=O)[C@H](CCC(=O)O)NC(=O)c2cc(OCC(=O)N3CCC[C@H]3C(=O)NC(C)(C)C)n(-c3ccccc3)n2)CC1` [Example 12, 4-{(S)-4-Carboxy-2-[(5-{2-[(S)-2-tert-butylcarbamoyl-pyrrolidin-1-yl]-2-oxo-ethoxy}-1-phenyl-1H-pyrazole-3-carbonyl)-amino]-butyryl}-piperazine-1-carboxylic acid ethyl ester]: the results for the IC50 (on human P2Y12 receptor; in experiment [1]; in experiment [2]) were 107 nM, 20 nM and 70 nM, respectively.

These data come from patent US8426420B2, “Heterocyclic pyrazole-carboxamidesas P2Y12 antagonists” (Sanofi, priority 2007, dated 2013).
